Reference: patent publication US20260166162A1, “CARBON CHAIN SUBSTANCE FOR REGULATING TRANSMEMBRANE TRANSPORT AND FLUIDITY OF CELL MEMBRANES, AND PREPARATION AND USE THEREOF” (priority 2022, published 2026)
Where “and” joins values, the source holds several entries; their conditions need not be identical. Equal entries are not always repeated. Where two headings read alike, the source gives them in different places.

Key:
Staphylococcus aureus = experiment: Bacteriostasis/sterilization test (plate count); assay type: cell-based; settings: for inhibition rate: concentration 0.035 mM; for IC50: read-out: half inhibition concentration
SARS-CoV-2 pseudovirus [1] = test system: SARS-CoV-2 pseudovirus; parameters: species or system SARS-CoV-2 pseudovirus B.1.526.2
VERO E6 cells = experiment: Cytotoxicity (CCK-8) on VERO E6 cells; settings: […] to 0.035 mM
Klebsiella pneumoniae = experiment: Bacteriostasis/sterilization test (plate count); assay type: cell-based
[2] = test system: Methicillin-resistant Staphylococcus aureus; experiment: Bacteriostasis/sterilization test (plate count); assay type: cell-based; settings: 0.035 mM (Table 25)
[3] = mouse, in vivo, po
Escherichia coli = experiment: Bacteriostasis/sterilization test (plate count); assay type: cell-based
H7N9 pseudovirus = assay type: cell-based, Influenza pseudovirus H7N9-Fluc
SARS-CoV-2 pseudovirus [4] = assay type: cell-based, SARS-CoV-2 pseudovirus B.1.526.2
HIV pseudovirus = assay type: cell-based, HIV pseudovirus HIV18A-41
Pseudomonas aeruginosa = experiment: Bacteriostasis/sterilization test (plate count); assay type: cell-based
H5N1 pseudovirus = assay type: cell-based, Influenza pseudovirus H5N1-Fluc
Streptococcus pneumoniae = experiment: Bacteriostasis/sterilization test (plate count); assay type: cell-based
[5] = test system: HPV pseudovirus (HPV6-GFP); settings: read-out: median neutralization concentration
[6] = test system: Human hair follicle stem cells; experiment: Human hair follicle stem cell proliferation (EdU); assay type: cell-based; settings: 20 μM, 30 μM, 50 μM, 6 h
IL-6 [7] = experiment: Skin photoaging (UVB) in BALB/c nude mice, serum IL-6 (Example II-54, Table II-34); assay type: in vivo, mouse
IL-1β [8] = experiment: LPS inflammatory aging in C57BL/6 mice, serum IL-1β (Example II-55, Table II-35); assay type: in vivo, mouse; settings: 1 mM, 200 μl/time, once a day, 30 days
IL-6 [9] = experiment: LPS inflammatory aging in C57BL/6 mice, serum IL-6 (Example II-55, Table II-36); assay type: in vivo, mouse
TNF-α [10] = experiment: LPS inflammatory aging in C57BL/6 mice, serum TNF-α (Example II-55, Table II-37); assay type: in vivo, mouse; settings: 1 mM, 200 μl/time once a day for 30 days, LPS C57BL/6 mice
Hela cells [11] = experiment: Cell membrane fluidity (Laurdan fluorescence recovery) in Hela cells; assay type: cell-based
TNF-α [12] = experiment: Skin photoaging (UVB) in BALB/c nude mice, serum TNF-α (Example II-54, Table II-32); assay type: in vivo, mouse; settings: UVB-irradiated BALB/c nude mice, 40 days
IL-1β [13] = experiment: Skin photoaging (UVB) in BALB/c nude mice, serum IL-1β (Example II-54, Table II-33); assay type: in vivo, mouse
Hela cells [14] = experiment: Phagocytosis of adriamycin-loaded ferroferric oxide nanoparticles by Hela cells; assay type: cell-based; settings: 5 nM for 1 h, then nanoparticles 4 h
Method: Hela cells (cell bank, Chinese Academy of Sciences) were seeded in a 6-well plate at a density of 1.0*10^5 and cultured for 24 h. The cells were treated with 5 nM Ser-EPA for 1 h and washed to remove Ser-EPA. Adriamycin-loaded ferroferric oxide nanoparticles were added followed by incubation for 4 h. Then, the cells were washed with PBS, stained with DAPI, and observed with confocal microscope.

Hela cells [15] = experiment: Cell migration (scratch) in Hela cells; assay type: cell-based; settings: 24 h
Method: Hela cells in logarithmic growth phase (cell bank of Chinese Academy of Sciences) were trypsinized into a single cell suspension and inoculated into a 6-well culture plate. […] The next day 5 nM Thr-EPA was added by scratching with a 200-microliter gun tip against the horizontal line on the vertical back of the lid of the 6-well plate. 24 h later, samples were taken and photographed. […] Hela cells in logarithmic growth phase (cell bank of Chinese Academy of Sciences) were trypsinized into a single cell suspension and inoculated into a 6-well culture plate. […] The next day […] Thr-EPA was added by scratching with a 200-microliter gun tip against the horizontal line on the vertical back of the lid of the 6-well plate. 24 h later, samples were taken and photographed.

[16] = 30 μM smeared, serum, UVB-irradiated BALB/c nude mice, 40 days
[17] = 50 μM smeared, serum, UVB-irradiated BALB/c nude mice, 40 days
[18] = 100 μM smeared, serum, UVB-irradiated BALB/c nude mice, 40 days

SMILES: CCC=CCC=CCC=CCC=CCC=CCC=CCCC(=O)NCCCCC(N)C(=O)O (stereo not shown)
- Inhibition rate (%) (Staphylococcus aureus): 99%
- inhibition rate (Staphylococcus aureus): greater than 99%
- IC50 (Staphylococcus aureus): 9 µM
- membrane structure of the virus (TEM) (SARS-CoV-2 pseudovirus [1]): broken
- effect of the complex on cells (VERO E6 cells): less than 10%
- Inhibition rate (%) (Klebsiella pneumoniae): 99%
- Inhibition rate (%) [2]: 99%
- liver, heart, kidney, bone/hepatobiliary function in blood versus control group [3]: no difference
- physiological state, body weight, fur color, food consumption, mental state versus control group [3]: not significantly different
- Inhibition rate (%) (Escherichia coli): 99%
- Sterilization rate (%) (H7N9 pseudovirus): 99%
- Sterilization rate (%) (SARS-CoV-2 pseudovirus [4]): 99%
- Sterilization rate (%) (HIV pseudovirus): 99%
- Inhibition rate (%) (Pseudomonas aeruginosa): 99%
- Sterilization rate (%) (H5N1 pseudovirus): 99%
- Inhibition rate (%) (Streptococcus pneumoniae): 99%

SMILES: CCC=CCC=CCC=CCC=CCC=CCC=CCCC(=O)OCC(N)C(=O)O (stereo not shown)
- Inhibition rate (%) (Staphylococcus aureus; 0.035 mM (Table 25)): 99%
- inhibition rate (Staphylococcus aureus): greater than 99%
- IC50 (Staphylococcus aureus): 9 µM
- Inhibition rate (%) (Klebsiella pneumoniae; 0.035 mM (Table 25)): 99%
- IC50 [5]: 9 µM
- Inhibition rate (%) [2]: 99%
- proliferation of human hair follicle stem cells [6]: effectively promote the proliferation
- Inhibition rate (%) (Escherichia coli; 0.035 mM (Table 25)): 99%
- Sterilization rate (%) (H7N9 pseudovirus): 99%
- Sterilization rate (%) (SARS-CoV-2 pseudovirus [4]): 99%
- Sterilization rate (%) (HIV pseudovirus): 99%
- Inhibition rate (%) (Pseudomonas aeruginosa; 0.035 mM (Table 25)): 99%
- Sterilization rate (%) (H5N1 pseudovirus): 99%
- Inhibition rate (%) (Streptococcus pneumoniae; 0.035 mM (Table 25)): 99%

SMILES: CCC=CCC=CCC=CCC=CCC=CCC=CCCC(=O)OC(C)C(N)C(=O)O (stereo not shown)
- Inhibition rate (%) (Staphylococcus aureus; 0.035 mM (Table 25)): 99%
- inhibition rate (Staphylococcus aureus): greater than 99%
- IC50 (Staphylococcus aureus): 9 µM
- IL-6 (IL-6 [7]; [16]): 36 pg/mL
- IL-6 (IL-6 [7]; [17]): 35 pg/mL
- IL-6 (IL-6 [7]; [18]): 34 pg/mL
- IL-1β (IL-1β [8]): 55 pg/mL
- membrane structure of the virus (TEM) (SARS-CoV-2 pseudovirus [1]): broken
- Inhibition rate (%) (Klebsiella pneumoniae; 0.035 mM (Table 25)): 99%
- IL-6 (IL-6 [9]; 1 mM, 200 μl/time once a day for 30 days, serum, LPS C57BL/6 mice): 50 pg/mL
- Inhibition rate (%) [2]: 99%
- Inhibition rate (%) (Escherichia coli; 0.035 mM (Table 25)): 99%
- Sterilization rate (%) (H7N9 pseudovirus): 99%
- TNF-α (TNF-α [10]): 53 pg/mL
- Sterilization rate (%) (SARS-CoV-2 pseudovirus [4]): 99%
- Fluorescence recovery rate % (Hela cells [11]; 2 nM, 20 s): 65.48%
- Fluorescence recovery rate % (Hela cells [11]; 2 nM, 40 s): 66.31%
- Fluorescence recovery rate % (Hela cells [11]; 2 nM, 60 s): 66.25%
- Fluorescence recovery rate % (Hela cells [11]; 2 nM, 80 s): 66.78%
- Fluorescence recovery rate % (Hela cells [11]; 5 nM, 20 s): 65.47%
- Fluorescence recovery rate % (Hela cells [11]; 5 nM, 40 s): 65.23%
- Fluorescence recovery rate % (Hela cells [11]; 5 nM, 60 s): 65.38%
- Fluorescence recovery rate % (Hela cells [11]; 5 nM, 80 s): 66.45%
- Fluorescence recovery rate % (Hela cells [11]; 10 nM, 20 s): 65.89%
- Fluorescence recovery rate % (Hela cells [11]; 10 nM, 40 s): 66.04%
- Fluorescence recovery rate % (Hela cells [11]; 10 nM, 60 s): 66.59%
- Fluorescence recovery rate % (Hela cells [11]; 10 nM, 80 s): 66.71%
- Fluorescence recovery rate % (Hela cells [11]; 50 nM, 20 s): 67.42%
- Fluorescence recovery rate % (Hela cells [11]; 50 nM, 40 s): 67.43%
- Fluorescence recovery rate % (Hela cells [11]; 50 nM, 60 s): 67.57%
- Fluorescence recovery rate % (Hela cells [11]; 50 nM, 80 s): 68.06%
- Fluorescence recovery rate % (Hela cells [11]; 50 μM, 20 s): 66.54%
- Fluorescence recovery rate % (Hela cells [11]; 50 μM, 40 s): 73.45%
- Fluorescence recovery rate % (Hela cells [11]; 50 μM, 60 s): 77.91%
- Fluorescence recovery rate % (Hela cells [11]; 50 μM, 80 s): 84.66%
- Fluorescence recovery rate % (Hela cells [11]; 100 μM, 20 s): 66.60%
- Fluorescence recovery rate % (Hela cells [11]; 100 μM, 40 s): 74.67%
- Fluorescence recovery rate % (Hela cells [11]; 100 μM, 60 s): 78.31%
- Fluorescence recovery rate % (Hela cells [11]; 100 μM, 80 s): 86.44%
- Sterilization rate (%) (HIV pseudovirus): 99%
- Inhibition rate (%) (Pseudomonas aeruginosa; 0.035 mM (Table 25)): 99%
- TNF-α (TNF-α [12]; 30 μM smeared): 53 pg/mL
- TNF-α (TNF-α [12]; 50 μM smeared): 47 pg/mL
- TNF-α (TNF-α [12]; 100 μM smeared): 49 pg/mL
- IL-1β (IL-1β [13]; [16]): 54 pg/mL
- IL-1β (IL-1β [13]; [17]): 56 pg/mL
- IL-1β (IL-1β [13]; [18]): 50 pg/mL
- Sterilization rate (%) (H5N1 pseudovirus): 99%
- Inhibition rate (%) (Streptococcus pneumoniae; 0.035 mM (Table 25)): 99%

SMILES: CC/C=C\C/C=C\C/C=C\CCCCCCCC(=O)NCCCCC(N)C(=O)O (stereo not shown) [Lys-ALA]
- proliferation of human hair follicle stem cells [6]: effectively promote the proliferation

SMILES: CCC=CCC=CCC=CCC=CCC=CCCCC(=O)NC(CO)C(=O)O (stereo not shown) [Ser-EPA, Serine-EPA]
- IL-6 (IL-6 [7]; mouse, in vivo): 41 pg/mL and 38 pg/mL and 39 pg/mL
- IL-1β (IL-1β [8]): 48 pg/mL
- phagocytosis of nanoparticles by treated cells (Hela cells [14]): significantly inhibited
- IL-6 (IL-6 [9]; mouse, in vivo): 47 pg/mL
- TNF-α (TNF-α [10]): 48 pg/mL
- Fluorescence recovery rate % (Hela cells [11]; 2 nM, 20 s): 63.44%
- Fluorescence recovery rate % (Hela cells [11]; 2 nM, 40 s): 65.36%
- Fluorescence recovery rate % (Hela cells [11]; 2 nM, 60 s): 65.21%
- Fluorescence recovery rate % (Hela cells [11]; 2 nM, 80 s): 66.35%
- Fluorescence recovery rate % (Hela cells [11]; 5 nM, 20 s): 64.73%
- Fluorescence recovery rate % (Hela cells [11]; 5 nM, 40 s): 64.59%
- Fluorescence recovery rate % (Hela cells [11]; 5 nM, 60 s): 65.66%
- Fluorescence recovery rate % (Hela cells [11]; 5 nM, 80 s): 67.97%
- Fluorescence recovery rate % (Hela cells [11]; 10 nM, 20 s): 64.66%
- Fluorescence recovery rate % (Hela cells [11]; 10 nM, 40 s): 65.11%
- Fluorescence recovery rate % (Hela cells [11]; 10 nM, 60 s): 65.24%
- Fluorescence recovery rate % (Hela cells [11]; 10 nM, 80 s): 66.83%
- Fluorescence recovery rate % (Hela cells [11]; 50 nM, 20 s): 62.84%
- Fluorescence recovery rate % (Hela cells [11]; 50 nM, 40 s): 62.94%
- Fluorescence recovery rate % (Hela cells [11]; 50 nM, 60 s): 63.04%
- Fluorescence recovery rate % (Hela cells [11]; 50 nM, 80 s): 64.54%
- Fluorescence recovery rate % (Hela cells [11]; 50 μM, 20 s): 64.33%
- Fluorescence recovery rate % (Hela cells [11]; 50 μM, 40 s): 72.49%
- Fluorescence recovery rate % (Hela cells [11]; 50 μM, 60 s): 73.77%
- Fluorescence recovery rate % (Hela cells [11]; 50 μM, 80 s): 81.40%
- Fluorescence recovery rate % (Hela cells [11]; 100 μM, 20 s): 65.72%
- Fluorescence recovery rate % (Hela cells [11]; 100 μM, 40 s): 72.99%
- Fluorescence recovery rate % (Hela cells [11]; 100 μM, 60 s): 74.34%
- Fluorescence recovery rate % (Hela cells [11]; 100 μM, 80 s): 80.39%
- TNF-α (TNF-α [12]; 30 μM smeared): 54 pg/mL
- TNF-α (TNF-α [12]; 50 μM smeared): 49 pg/mL
- TNF-α (TNF-α [12]; 100 μM smeared): 44 pg/mL
- IL-1β (IL-1β [13]; mouse, in vivo): 57 pg/mL and 61 pg/mL and 54 pg/mL

SMILES: CCC=CCC=CCC=CCC=CCC=CCCCC(=O)OC(C)C(N)C(=O)O (stereo not shown) [Thr-EPA]
- cell migration (Hela cells [15]; 5 nM): inhibited cell migration
- cell migration (Hela cells [15]; 50 µM): promoted cell migration
